Our source for the microsomal CLint and IC50 values is paper PMC12391391, “The balance between B55α and Greatwall expression levels predicts sensitivity to Greatwall inhibition in cancer cells” (Nature Communications, 2025).

Data set [1] in a line: in vitro. Also noted: intrinsic clearance in human microsomes. The conditions noted are these: liver microsomes; human liver microsomes; read-out: Cl (human). The text has this: We selected compound 1 as the lead exemplar of cluster 3 and leveraged it as a foundation for subsequent drug development (Fig. 1a). Structure-activity relationship studies and pharmacokinetic profiling produced several derivative molecules, of which compound 21 provided the best combination of outstanding inhibitory potential, low clearance in mouse microsomes and acceptable solubility (Fig. 1a–c and Supplementary Tables 1–4). […] This assessment was supported by structural modelling of the interaction between compound 21 and the active site of GWL (Fig. 1d). In further support of its GWL-targeting properties, compound 21 diminished the phosphorylation of the canonical GWL substrate ENSA(S67) in Xenopus laevis cytostatic factor (CSF) egg extract (Supplementary Fig. 2). Having satisfied the criteria of prospective GWL inhibitor, the racemic compound 21 was registered as UOS-00054604 and, for the remainder of the manuscript, is referred to as C-604.
On the technique in general: Liver microsomes are a subcellular fraction often used to study metabolism.

The target in data set [2] is MAP3K9 (Homo sapiens, UniProt P80192). Kind of data set: biochemical. Also noted: LanthaScreen kinase activity assay (Thermo Fisher), dose-dependent inhibition by C-604. The conditions noted are these: read-out: IC50 (C-604). The method, then: (§1) To identify potential C-604 off-targets, we utilised a commercially available off-target screening service (Thermo Fisher Scientific) to assess the impact of C-604 on the in vitro activity of 100 human kinases (Supplementary Fig. 8a). Out of 100 tested targets, C-604 (1 µM) inhibited GWL (inhibition 95%) and an additional 10 kinases (inhibition ≥ 80%). […] The in vitro off-target effects of compound C-604 were determined by assessing its inhibitory potential in a panel of 100 human kinases using the LanthaScreen Kinase Activity Assay (Thermo Fisher Scientific).

The target in data set [3] is MELK (Homo sapiens, UniProt Q14680). The experiment in a line: biochemical. Also noted: LanthaScreen kinase activity assay (Thermo Fisher), dose-dependent inhibition by C-604. The conditions noted are these: read-out: IC50 (C-604). The procedure:
as §1

Data set [4] deals with T1, NUAK1 (Homo sapiens, UniProt O60285).
T1 sequence (O60285 1-661): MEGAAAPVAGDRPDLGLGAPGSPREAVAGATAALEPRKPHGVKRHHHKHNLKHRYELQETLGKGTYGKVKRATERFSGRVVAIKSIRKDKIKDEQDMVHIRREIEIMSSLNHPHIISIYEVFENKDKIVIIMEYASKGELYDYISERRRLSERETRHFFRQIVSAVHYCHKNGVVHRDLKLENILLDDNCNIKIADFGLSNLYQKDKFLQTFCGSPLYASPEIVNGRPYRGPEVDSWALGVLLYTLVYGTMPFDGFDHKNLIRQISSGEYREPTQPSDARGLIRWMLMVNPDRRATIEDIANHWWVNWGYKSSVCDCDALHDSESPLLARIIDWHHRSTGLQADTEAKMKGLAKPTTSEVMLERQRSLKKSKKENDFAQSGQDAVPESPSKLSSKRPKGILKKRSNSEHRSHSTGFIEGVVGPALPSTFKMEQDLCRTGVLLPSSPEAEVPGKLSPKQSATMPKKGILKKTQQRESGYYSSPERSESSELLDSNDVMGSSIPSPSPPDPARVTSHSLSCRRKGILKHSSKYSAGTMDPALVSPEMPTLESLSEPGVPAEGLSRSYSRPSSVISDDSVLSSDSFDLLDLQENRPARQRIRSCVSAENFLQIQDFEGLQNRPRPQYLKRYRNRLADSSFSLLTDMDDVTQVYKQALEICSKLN
The experiment in a line: biochemical. The conditions noted are these: read-out: IC50 (C-604). Set-up: LanthaScreen kinase activity assay (Thermo Fisher), dose-dependent inhibition by C-604. The procedure: as §1

Chain of MAP3K9 (P80192 whole entry): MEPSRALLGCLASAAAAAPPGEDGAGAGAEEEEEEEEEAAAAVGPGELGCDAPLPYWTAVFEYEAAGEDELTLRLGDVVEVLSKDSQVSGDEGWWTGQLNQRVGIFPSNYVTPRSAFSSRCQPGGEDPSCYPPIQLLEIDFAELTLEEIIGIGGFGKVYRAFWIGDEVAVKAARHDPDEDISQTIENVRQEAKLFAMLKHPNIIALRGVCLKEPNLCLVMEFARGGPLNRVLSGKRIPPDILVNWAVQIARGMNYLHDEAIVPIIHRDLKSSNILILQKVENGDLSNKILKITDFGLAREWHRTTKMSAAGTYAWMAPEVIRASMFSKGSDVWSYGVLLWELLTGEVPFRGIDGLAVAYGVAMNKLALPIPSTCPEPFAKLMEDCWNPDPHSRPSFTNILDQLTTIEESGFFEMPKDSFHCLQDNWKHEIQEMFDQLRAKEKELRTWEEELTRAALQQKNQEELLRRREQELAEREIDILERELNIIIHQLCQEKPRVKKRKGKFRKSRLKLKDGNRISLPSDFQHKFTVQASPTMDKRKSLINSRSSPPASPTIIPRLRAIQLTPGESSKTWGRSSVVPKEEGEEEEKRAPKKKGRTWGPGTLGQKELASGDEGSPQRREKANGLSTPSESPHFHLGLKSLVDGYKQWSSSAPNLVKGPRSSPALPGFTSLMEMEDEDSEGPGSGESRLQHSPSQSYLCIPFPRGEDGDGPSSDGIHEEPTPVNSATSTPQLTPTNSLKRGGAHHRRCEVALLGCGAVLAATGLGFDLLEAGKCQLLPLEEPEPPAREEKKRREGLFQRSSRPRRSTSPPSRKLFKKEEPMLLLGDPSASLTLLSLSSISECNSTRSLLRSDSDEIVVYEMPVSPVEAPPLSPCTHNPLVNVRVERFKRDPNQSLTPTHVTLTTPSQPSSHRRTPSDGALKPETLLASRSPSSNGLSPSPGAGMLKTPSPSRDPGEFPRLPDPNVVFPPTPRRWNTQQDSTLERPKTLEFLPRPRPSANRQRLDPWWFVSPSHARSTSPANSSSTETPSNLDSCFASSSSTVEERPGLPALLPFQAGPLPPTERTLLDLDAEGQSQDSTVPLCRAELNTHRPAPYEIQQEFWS
Chain of MELK (Q14680 whole entry): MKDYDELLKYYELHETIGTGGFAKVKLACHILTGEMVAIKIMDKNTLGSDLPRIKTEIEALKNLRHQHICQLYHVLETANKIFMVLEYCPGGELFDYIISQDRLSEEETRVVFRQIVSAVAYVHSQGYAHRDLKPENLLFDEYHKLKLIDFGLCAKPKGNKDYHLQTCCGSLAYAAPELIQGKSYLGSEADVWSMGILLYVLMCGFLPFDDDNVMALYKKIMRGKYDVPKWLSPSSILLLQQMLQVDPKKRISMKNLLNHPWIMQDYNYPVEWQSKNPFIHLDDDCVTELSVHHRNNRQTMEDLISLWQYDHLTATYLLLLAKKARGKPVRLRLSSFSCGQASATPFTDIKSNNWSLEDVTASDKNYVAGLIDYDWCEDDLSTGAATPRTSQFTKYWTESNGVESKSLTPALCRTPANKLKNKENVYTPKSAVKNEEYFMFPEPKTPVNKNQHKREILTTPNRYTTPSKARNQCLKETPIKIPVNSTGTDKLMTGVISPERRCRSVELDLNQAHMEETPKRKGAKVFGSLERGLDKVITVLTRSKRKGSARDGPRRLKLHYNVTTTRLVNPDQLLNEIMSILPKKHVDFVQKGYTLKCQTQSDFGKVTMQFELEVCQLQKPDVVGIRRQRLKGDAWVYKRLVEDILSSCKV

In the case of `CNC(=O)c1c[nH]c2ncc(-c3ccc(OCCN4CCC(c5ccccc5)C4)cc3)nc12` (racemic) [compound 21, C-604], in data set [1], the microsomal CLint came to 13 µL/min/mg. The figures for the 50% inhibitory concentration (IC50) in data set [2], in data set [3] and in data set [4] were 29.3 nM, 16.9 nM and 10.1 nM, respectively.

The term IC50 denotes the concentration needed to halve the response being measured.
